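Five concentrations, 48 hours, 96-well plates. Definition used: TGI = concentration required for complete inhibition of growth.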
Columns and labels:
Test in all cases: NCI-60 cell line screen, 48 h
[1] = test system: SNB-78 CNS
[2] = test system: M19-MEL melanoma
[3] = test system: DMS 114 small cell lung
[4] = test system: DLD-1 colon
[5] = test system: HOP-18 NSCLC
[6] = test system: LXFL 529 NSCLC
[7] = test system: DMS 273 small cell lung
[8] = test system: XF 498 CNS
[9] = test system: RXF-631 renal

Row | Compound | TGI [1] [µM] | TGI [2] [µM] | TGI [3] [µM] | TGI [4] [µM] | TGI [5] [µM] | TGI [6] [µM] | TGI [7] [µM] | TGI [8] [µM] | TGI [9] [µM]
1 | CC(=O)OC1CC2C(C)(C)C(=O)C=C[C@]2(C)C2CCC3(C)C(c4ccoc4)[C@@H](O)[C@H]4O[C@]43[C@]12C (stereo partly drawn) | 67.8 | 36.5 | 41.9 | 41 | 45.5 | 37 | 89.1 |  | 
2 | CC1=CC(=O)c2c(C=O)c(O)c(O)c(C(C)C)c2C1=O | > 100 | > 100 | 51.5 | > 68.4 | 58 | 41.4 | > 88.5 | 43.9 | 
3 | CCCCCNC(=O)c1c(O)[nH]c(=S)[nH]c1=O | > 100 | > 100 | > 100 |  |  | > 100 |  |  | > 100
4 | Cc1c(C(=O)/C=C/c2c(Cl)cccc2Cl)c(=O)n(-c2ccccc2)n1C | > 100 | > 100 | > 100 |  |  | 31.1 | 33.7 | 71 | 
5 | C=C(Br)C(C)(Br)CCC(Br)C(C)(C)Br (stereo not drawn) | 70.4 | 35.8 | 31.6 | > 100 | > 100 | 45.2 | 42.9 |  | 

Source: PubChem BioAssay (NCI)
